Biological target: T1, xanthine oxidase (XO) (Bos taurus, UniProt P80457)
T1 construct: gene XDH
Assay: xanthine oxidase inhibition assay with Lineweaver-Burk kinetics (IC50 […]; KI […])
Assay type: biochemical

T1 sequence (P80457 2-1332): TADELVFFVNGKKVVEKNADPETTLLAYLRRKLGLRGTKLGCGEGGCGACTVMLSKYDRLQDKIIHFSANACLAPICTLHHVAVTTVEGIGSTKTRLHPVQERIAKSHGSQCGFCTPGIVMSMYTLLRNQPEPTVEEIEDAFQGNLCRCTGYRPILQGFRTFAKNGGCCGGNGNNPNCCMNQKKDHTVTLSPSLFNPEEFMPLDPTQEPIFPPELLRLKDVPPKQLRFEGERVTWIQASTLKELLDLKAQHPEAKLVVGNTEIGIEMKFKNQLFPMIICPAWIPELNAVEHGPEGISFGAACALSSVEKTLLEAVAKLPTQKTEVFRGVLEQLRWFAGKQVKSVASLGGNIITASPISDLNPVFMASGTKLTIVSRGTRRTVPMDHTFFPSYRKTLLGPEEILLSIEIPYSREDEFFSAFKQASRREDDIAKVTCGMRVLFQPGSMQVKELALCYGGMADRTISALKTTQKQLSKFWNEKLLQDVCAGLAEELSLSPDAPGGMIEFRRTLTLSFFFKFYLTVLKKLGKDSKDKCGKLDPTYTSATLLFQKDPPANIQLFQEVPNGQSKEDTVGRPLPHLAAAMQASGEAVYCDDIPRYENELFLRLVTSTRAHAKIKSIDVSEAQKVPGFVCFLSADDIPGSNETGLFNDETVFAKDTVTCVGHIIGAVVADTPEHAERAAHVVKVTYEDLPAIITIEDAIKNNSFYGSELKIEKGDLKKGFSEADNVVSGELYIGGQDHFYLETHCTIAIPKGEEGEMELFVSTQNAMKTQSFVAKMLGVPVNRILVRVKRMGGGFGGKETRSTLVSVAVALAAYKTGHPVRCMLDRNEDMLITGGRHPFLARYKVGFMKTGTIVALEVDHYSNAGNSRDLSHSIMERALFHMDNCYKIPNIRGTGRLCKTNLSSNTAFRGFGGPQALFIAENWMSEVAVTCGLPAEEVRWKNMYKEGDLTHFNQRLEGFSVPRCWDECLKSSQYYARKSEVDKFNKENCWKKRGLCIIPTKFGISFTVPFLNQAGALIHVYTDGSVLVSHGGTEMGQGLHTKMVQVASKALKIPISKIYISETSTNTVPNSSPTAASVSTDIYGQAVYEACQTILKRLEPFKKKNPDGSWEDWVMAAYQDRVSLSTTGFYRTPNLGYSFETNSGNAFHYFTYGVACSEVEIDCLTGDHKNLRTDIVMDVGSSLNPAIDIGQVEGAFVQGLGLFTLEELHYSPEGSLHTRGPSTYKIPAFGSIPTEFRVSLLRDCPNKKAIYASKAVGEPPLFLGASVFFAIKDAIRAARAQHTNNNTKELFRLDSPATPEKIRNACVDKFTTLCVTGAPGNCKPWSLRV

COc1cc(-c2cc(=O)c3c(O)cc(O)cc3o2)cc(OC)c1O [tricin]
Ki: 470 nM
